{"source": "patent US20130072899A1", "about": "“Pharmaceutical Formulations for Iontophoretic Delivery of Gallium” (Nitric BloTherapeutics, Inc., priority 2008, published 2013)", "key": {"[1]": {"conditions": "for specific binding affinity of human full thickness skin for gallium (mean): mean of samples A-E, nitrate hydrate", "quoted_text": "Ten minutes of 400 μA iontophoresis was applied to all of the cells and 0.5 mL samples were removed after 0, 24, 28, 42, 65 and 70 h and replaced with receiver fluid. […] Samples of 0.5 mL were removed for LC ion-exchange assay after 0, 24, 28, 42, 52 and 70 h and replaced with receiver fluid. […] The skin samples were then finely sliced using scissors, chilled and homogenised for five minutes using a T10 Ultra-Turax homogeniser (IKA works, Staufen, Germany) using 30 second pulses. The scalpel, scissors, forceps and homogeniser blades were washed through using 10 mL of PDCA mobile phase concentrate as the extractant. […] The skin-PDCA concentrate homogenate was allowed to mix for a further 24 h before being filtered using 0.45 μm, 30 mm cellulose acetate syringe filters (Orange Scientific, Braine l'Alleud, Belgium)."}, "[2]": {"assay": "Effect of speciation and ITP on gallium deposition within full thickness human skin", "format": "in vitro ADME", "procedure": "An infinite dose skin deposition study was performed using full thickness human skin. Small Franz cells were constructed as previously described and the mass of skin section recorded. The Franz cells were set up with a receiver fluid of 0.05 M citric acid buffer (pH 5.0) and allowed to equilibrate for one hour. Donor solutions were prepared and 0.5 mL of each added to the appropriate Franz cell donor compartment. Each cell was subjected to either 60 min of ITP or an equivalent period of passive permeation. The cells were sacrificed after cither 60 min (directly after ITP, n=8) or after 25 h (24 h of permeation, n=8). […] The skin samples were removed and reweighed. […] The skin samples were then finely sliced using scissors, chilled and homogenised for five minutes using a T10 Ultra-Turax homogeniser (IKA werks, Staufen, Germany) using 30 second pulses. The scalpel blade, scissors, forceps and homogeniser blades were washed into the homogenate using PDCA mobile phase (five times concentrate) to minimise drug loss from the method. The skin-PDCA concentrate homogenate was allowed to mix for a further 24 h before being filtered using 0.45 μm, 30 mm cellulose acetate syringe filters (Orange Scientific, Braine l'Alleud, Belgium)."}, "[3]": {"conditions": "Sample D, Ga delivered 0.395 mg"}, "[4]": {"conditions": "Sample E, Ga delivered 0.1975 mg"}}, "note": "Where two headings read alike, the source gives them in different places."}
{"compound": "O=[N+]([O-])[O-].O=[N+]([O-])[O-].O=[N+]([O-])[O-].[Ga+3]", "note": "[gallium nitrate, Gallium (III) nitrate hydrate]", "values": [{"measurement": "% Ga recovery", "setting": "[1]; Sample A, Ga delivered 2.4 mg", "value": 97.1, "unit": "%"}, {"measurement": "Binding", "setting": "[1]; Sample A, Ga delivered 2.4 mg", "value": 0.138, "unit": "mg/g"}, {"measurement": "Ga bound to skin", "setting": "[1]; Sample A, Ga delivered 2.4 mg", "value": 0.07, "unit": "mg"}, {"measurement": "Ga recovered", "setting": "[1]; Sample A, Ga delivered 2.4 mg", "value": 2.33, "unit": "mg"}, {"measurement": "% Ga recovery", "setting": "[1]; Sample B, Ga delivered 1.6 mg", "value": 92.5, "unit": "%"}, {"measurement": "Binding", "setting": "[1]; Sample B, Ga delivered 1.6 mg", "value": 0.178, "unit": "mg/g"}, {"measurement": "Ga bound to skin", "setting": "[1]; Sample B, Ga delivered 1.6 mg", "value": 0.12, "unit": "mg"}, {"measurement": "Ga recovered", "setting": "[1]; Sample B, Ga delivered 1.6 mg", "value": 1.48, "unit": "mg"}, {"measurement": "% Ga recovery", "setting": "[1]; Sample C, Ga delivered 0.79 mg", "value": 87.3, "unit": "%"}, {"measurement": "Binding", "setting": "[1]; Sample C, Ga delivered 0.79 mg", "value": 0.193, "unit": "mg/g"}, {"measurement": "Ga bound to skin", "setting": "[1]; Sample C, Ga delivered 0.79 mg", "value": 0.1, "unit": "mg"}, {"measurement": "Ga recovered", "setting": "[1]; Sample C, Ga delivered 0.79 mg", "value": 0.69, "unit": "mg"}, {"measurement": "% Ga recovery", "setting": "[1]; [3]", "value": 73.4, "unit": "%"}, {"measurement": "Binding", "setting": "[1]; [3]", "value": 0.197, "unit": "mg/g"}, {"measurement": "Ga bound to skin", "setting": "[1]; [3]", "value": 0.105, "unit": "mg"}, {"measurement": "Ga recovered", "setting": "[1]; [3]", "value": 0.29, "unit": "mg"}, {"measurement": "% Ga recovery", "setting": "[1]; [4]", "value": 60.8, "unit": "%"}, {"measurement": "Binding", "setting": "[1]; [4]", "value": 0.151, "unit": "mg/g"}, {"measurement": "Ga bound to skin", "setting": "[1]; [4]", "value": 0.0775, "unit": "mg"}, {"measurement": "Ga recovered", "setting": "[1]; [4]", "value": 0.12, "unit": "mg"}, {"measurement": "specific binding affinity of human full thickness skin for gallium (mean)", "setting": "[1]; listed as Ga", "value": 0.171, "unit": "mg/g"}, {"measurement": "specific binding affinity of human full thickness skin for gallium (mean)", "setting": "[1]", "value": "0.17 ± 0.03", "unit": "mg/g"}, {"measurement": "ITP Ga skin deposition 24 h", "setting": "[2]; Anodal, 60 min ITP then 24 h", "value": "1.888±1.159", "unit": "mg/cm^2"}, {"measurement": "ITP Ga skin deposition 60 min", "setting": "[2]; Anodal, 60 min of 615 μA/cm^2 ITP", "value": "1.203±0.248", "unit": "mg/cm^2"}, {"measurement": "60 min passive skin deposition", "setting": "[2]; passive, 60 min", "value": "0.288±0.258", "unit": "mg/cm^2"}]}
